Values after ≈ are worked out from the molar mass of the structure shown.
System: Staphylococcus aureus
Test: Antibacterial activity against Staphylococcus aureus ATCC 29213 after 18 hrs by broth microdilution method
Format: functional
Settings: ATCC 29213, 18 h

Question: How did the MIC turn out when `CCCc1c(Cl)c(O)cc2c1Oc1c(Cl)c(O)c(Cl)c(CCC)c1C(=O)O2` was run?
Answer: Its MIC is 2 µg/mL (≈ 4.63 µM).

System: Bacillus thuringiensis
Test: Antibacterial activity against Bacillus thuringiensis SCSIO BT01 after 18 hrs by broth microdilution method
Format: functional
Settings: SCSIO BT01, 18 h

Question: How did the MIC turn out when `CCCc1c(Cl)c(O)cc2c1Oc1c(Cl)c(O)c(Cl)c(CCC)c1C(=O)O2` was run?
Answer: Its MIC is 1 µg/mL (≈ 2.32 µM).

System: Bacillus subtilis
Test: Antibacterial activity against Bacillus subtilis SCSIO BS01 after 18 hrs by broth microdilution method
Format: functional
Settings: SCSIO BS01, 18 h

Question: With `CCCc1c(Cl)c(O)cc2c1Oc1c(Cl)c(O)c(Cl)c(CCC)c1C(=O)O2` as the molecule, how does the MIC read?
Answer: Its MIC is 0.5 µg/mL (≈ 1.16 µM).

System: Escherichia coli
Test: Antibacterial activity against Escherichia coli ATCC 25922 after 18 hrs by broth microdilution method
Format: functional
Settings: ATCC 25922, 18 h

Question: `CCCc1c(Cl)c(O)cc2c1Oc1c(Cl)c(O)c(Cl)c(CCC)c1C(=O)O2` was tested. Which MIC did it give?
Answer: The MIC was greater than 128 µg/mL.

System: Staphylococcus aureus
Test: Antibacterial activity against methicillin-sensitive Staphylococcus aureus ATCC 29213 after 18 hrs by broth microdilution method
Format: functional, organism-based
Settings: ATCC 29213, 18 h, read-out: IC50

Question: `CCCc1c(Cl)c(O)cc2c1Oc1c(Cl)c(O)c(Cl)c(CCC)c1C(=O)O2` was tested. Which MIC did it give?
Answer: The MIC was 4 µM (≈ 1.73 µg/mL).

System: Staphylococcus aureus
Test: Antibacterial activity against methicillin-resistant Staphylococcus aureus ATCC 33591 after 18 hrs by broth microdilution method
Format: functional, organism-based
Settings: ATCC 33591, 18 h, read-out: IC50

Question: How did the MIC turn out when `CCCc1c(Cl)c(O)cc2c1Oc1c(Cl)c(O)c(Cl)c(CCC)c1C(=O)O2` was run?
Answer: Its MIC is 4 µM (≈ 1.73 µg/mL).

System: Staphylococcus aureus
Test: Antibacterial activity against methicillin-sensitive Staphylococcus aureus 15 after 18 hrs by broth microdilution method
Format: functional, organism-based
Settings: Staphylococcus aureus, 15, 18 h; read-out: IC50

Question: How did the MIC turn out when `CCCc1c(Cl)c(O)cc2c1Oc1c(Cl)c(O)c(Cl)c(CCC)c1C(=O)O2` was run?
Answer: Its MIC is 4 µM (≈ 1.73 µg/mL).

System: Staphylococcus aureus
Test: Antibacterial activity against methicillin-sensitive Staphylococcus aureus 12-28 after 18 hrs by broth microdilution method
Format: functional, organism-based
Settings: 12-28, 18 h

Question: With `CCCc1c(Cl)c(O)cc2c1Oc1c(Cl)c(O)c(Cl)c(CCC)c1C(=O)O2` as the molecule, how does the IC50 read?
Answer: Its IC50 is 4 µM.

System: Staphylococcus aureus
Test: Antibacterial activity against methicillin-resistant Staphylococcus aureus 12-33 after 18 hrs by broth microdilution method
Format: functional, organism-based
Settings: 12-33, 18 h, read-out: IC50

Question: How did the MIC turn out when `CCCc1c(Cl)c(O)cc2c1Oc1c(Cl)c(O)c(Cl)c(CCC)c1C(=O)O2` was run?
Answer: Its MIC is 4 µM (≈ 1.73 µg/mL).

System: Staphylococcus epidermidis
Test: Antibacterial activity against methicillin-sensitive Staphylococcus epidermidis ATCC 12228 after 18 hrs by broth microdilution method
Format: functional, organism-based
Settings: ATCC 12228, 18 h, read-out: IC50

Question: With `CCCc1c(Cl)c(O)cc2c1Oc1c(Cl)c(O)c(Cl)c(CCC)c1C(=O)O2` as the molecule, how does the MIC read?
Answer: The MIC was 2 µM (≈ 0.863 µg/mL).

System: Staphylococcus epidermidis
Test: Antibacterial activity against methicillin-sensitive Staphylococcus epidermidis 12-6 after 18 hrs by broth microdilution method
Format: functional, organism-based
Settings: 12-6, 18 h

Question: With `CCCc1c(Cl)c(O)cc2c1Oc1c(Cl)c(O)c(Cl)c(CCC)c1C(=O)O2` as the molecule, how does the IC50 read?
Answer: The IC50 was 4 µM.

System: Staphylococcus epidermidis
Test: Antibacterial activity against methicillin-resistant Staphylococcus epidermidis 12-8 after 18 hrs by broth microdilution method
Format: functional, organism-based
Settings: 12-8, 18 h, read-out: IC50

Question: `CCCc1c(Cl)c(O)cc2c1Oc1c(Cl)c(O)c(Cl)c(CCC)c1C(=O)O2` was tested. Which MIC did it give?
Answer: The MIC was 4 µM (≈ 1.73 µg/mL).

System: Enterococcus faecalis
Test: Antibacterial activity against vancomycin-sensitive Enterococcus faecalis ATCC 29212 after 18 hrs by broth microdilution method
Format: functional, organism-based
Settings: ATCC 29212, 18 h, read-out: IC50

Question: For `CCCc1c(Cl)c(O)cc2c1Oc1c(Cl)c(O)c(Cl)c(CCC)c1C(=O)O2`, which MIC is on record?
Answer: Its MIC is 32 µM (≈ 13.8 µg/mL).

System: Enterococcus faecalis
Test: Antibacterial activity against vancomycin-resistant Enterococcus faecalis ATCC 51299 after 18 hrs by broth microdilution method
Format: functional, organism-based
Settings: ATCC 51299, 18 h, read-out: IC50

Question: `CCCc1c(Cl)c(O)cc2c1Oc1c(Cl)c(O)c(Cl)c(CCC)c1C(=O)O2` was tested. Which MIC did it give?
Answer: The MIC was 32 µM (≈ 13.8 µg/mL).

System: Enterococcus faecalis
Test: Antibacterial activity against vancomycin-sensitive Enterococcus faecalis 12-5 after 18 hrs by broth microdilution method
Format: functional, organism-based
Settings: 12-5, 18 h, read-out: IC50

Question: How did the MIC turn out when `CCCc1c(Cl)c(O)cc2c1Oc1c(Cl)c(O)c(Cl)c(CCC)c1C(=O)O2` was run?
Answer: Its MIC is 32 µM (≈ 13.8 µg/mL).

System: Enterococcus faecalis
Test: Antibacterial activity against vancomycin-resistant Enterococcus faecalis 09-9 after 18 hrs by broth microdilution method
Format: functional, organism-based
Settings: 09-9, 18 h, read-out: IC50

Question: `CCCc1c(Cl)c(O)cc2c1Oc1c(Cl)c(O)c(Cl)c(CCC)c1C(=O)O2` was tested. Which MIC did it give?
Answer: Its MIC is 32 µM (≈ 13.8 µg/mL).

System: Enterococcus faecium
Test: Antibacterial activity against vancomycin-resistant Enterococcus faecium ATCC 700221 after 18 hrs by broth microdilution method
Format: functional, organism-based
Settings: ATCC 700221, 18 h, read-out: IC50

Question: `CCCc1c(Cl)c(O)cc2c1Oc1c(Cl)c(O)c(Cl)c(CCC)c1C(=O)O2` was tested. Which MIC did it give?
Answer: Its MIC is 32 µM (≈ 13.8 µg/mL).

System: Enterococcus faecium
Test: Antibacterial activity against vancomycin-resistant Enterococcus faecium 12-1 after 18 hrs by broth microdilution method
Format: functional, organism-based
Settings: 12-1, 18 h, read-out: IC50

Question: With `CCCc1c(Cl)c(O)cc2c1Oc1c(Cl)c(O)c(Cl)c(CCC)c1C(=O)O2` as the molecule, how does the MIC read?
Answer: The MIC was 16 µM (≈ 6.91 µg/mL).

System: Enterococcus faecium
Test: Antibacterial activity against vancomycin-sensitive Enterococcus faecium 12-3 after 18 hrs by broth microdilution method
Format: functional, organism-based
Settings: 12-3, 18 h, read-out: IC50

Question: `CCCc1c(Cl)c(O)cc2c1Oc1c(Cl)c(O)c(Cl)c(CCC)c1C(=O)O2` was tested. Which MIC did it give?
Answer: The MIC was 32 µM (≈ 13.8 µg/mL).

System: Escherichia coli
Test: Antibacterial activity against extended spectrum beta-lactamase-deficient Escherichia coli ATCC 25922 after 18 hrs by broth microdilution method
Format: functional, organism-based
Settings: ATCC 25922, 18 h, read-out: IC50

Question: How did the MIC turn out when `CCCc1c(Cl)c(O)cc2c1Oc1c(Cl)c(O)c(Cl)c(CCC)c1C(=O)O2` was run?
Answer: Its MIC is greater than 256 µM.

System: Escherichia coli
Test: Antibacterial activity against extended spectrum beta-lactamase-deficient Escherichia coli 1515 after 18 hrs by broth microdilution method
Format: functional, organism-based
Settings: Escherichia coli, 1515, 18 h

Question: Which IC50 does the source give for `CCCc1c(Cl)c(O)cc2c1Oc1c(Cl)c(O)c(Cl)c(CCC)c1C(=O)O2` here?
Answer: The IC50 was greater than 256 µM.

System: Escherichia coli
Test: Antibacterial activity against extended spectrum beta-lactamase-deficient Escherichia coli 12-14 after 18 hrs by broth microdilution method
Format: functional, organism-based
Settings: 12-14, 18 h, read-out: IC50

Question: `CCCc1c(Cl)c(O)cc2c1Oc1c(Cl)c(O)c(Cl)c(CCC)c1C(=O)O2` was tested. Which MIC did it give?
Answer: Its MIC is greater than 256 µM.

System: Escherichia coli
Test: Antibacterial activity against extended spectrum beta-lactamase producing Escherichia coli 12-15 after 18 hrs by broth microdilution method
Format: functional, organism-based
Settings: 12-15, 18 h, read-out: IC50

Question: `CCCc1c(Cl)c(O)cc2c1Oc1c(Cl)c(O)c(Cl)c(CCC)c1C(=O)O2` was tested. Which MIC did it give?
Answer: Its MIC is greater than 256 µM.

System: Klebsiella pneumoniae
Test: Antibacterial activity against extended spectrum beta-lactamase producing Klebsiella pneumoniae ATCC 700603 after 18 hrs by broth microdilution method
Format: functional, organism-based
Settings: ATCC 700603, 18 h

Question: `CCCc1c(Cl)c(O)cc2c1Oc1c(Cl)c(O)c(Cl)c(CCC)c1C(=O)O2` was tested. Which IC50 did it give?
Answer: Its IC50 is greater than 256 µM.

System: Klebsiella pneumoniae
Test: Antibacterial activity against extended spectrum beta-lactamase-deficient Klebsiella pneumoniae 7 after 18 hrs by broth microdilution method
Format: functional, organism-based
Settings: Klebsiella pneumoniae, 7, 18 h; read-out: IC50

Question: `CCCc1c(Cl)c(O)cc2c1Oc1c(Cl)c(O)c(Cl)c(CCC)c1C(=O)O2` was tested. Which MIC did it give?
Answer: The MIC was greater than 256 µM.

System: Klebsiella pneumoniae
Test: Antibacterial activity against NDM-1 producing Klebsiella pneumoniae ATCC BAA-2146 after 18 hrs by broth microdilution method
Format: functional, organism-based
Settings: ATCC BAA-2146, 18 h, read-out: IC50

Question: With `CCCc1c(Cl)c(O)cc2c1Oc1c(Cl)c(O)c(Cl)c(CCC)c1C(=O)O2` as the molecule, how does the MIC read?
Answer: Its MIC is greater than 256 µM.

System: Klebsiella pneumoniae
Test: Antibacterial activity against extended spectrum beta-lactamase-deficient Klebsiella pneumoniae 12-4 after 18 hrs by broth microdilution method
Format: functional, organism-based
Settings: 12-4, 18 h

Question: With `CCCc1c(Cl)c(O)cc2c1Oc1c(Cl)c(O)c(Cl)c(CCC)c1C(=O)O2` as the molecule, how does the IC50 read?
Answer: The IC50 was greater than 256 µM.

System: Klebsiella pneumoniae
Test: Antibacterial activity against extended spectrum beta-lactamase producing Klebsiella pneumoniae 12-8 after 18 hrs by broth microdilution method
Format: functional, organism-based
Settings: 12-8, 18 h, read-out: IC50

Question: `CCCc1c(Cl)c(O)cc2c1Oc1c(Cl)c(O)c(Cl)c(CCC)c1C(=O)O2` was tested. Which MIC did it give?
Answer: The MIC was greater than 256 µM.
